In patent US11214594B2, “Antimicrobial peptide having synergistic antibacterial effect with antibiotics on multidrug resistant bacteria, and use thereof” (priority 2016, dated 2022):
Values after ≈ are worked out from the molar mass of the structure shown. Where a SMILES comes first, the peptide text is derived from it. [ ]: non-standard residue; d: D form.

How the values were obtained:
S. epidermidis = assay: microbe, parasite or virus in culture; assay type: cell-based, Staphylococcus epidermidis
How it was run: (§1)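 MIC read-out = lowest peptide level with no bacterial proliferation. Strains diluted in MH medium to 2×10^6 CFU; peptide twofold serial dilutions in MH added 1:1 in microtiter wells.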

MDRST 8009 = assay type: cell-based, Salmonella typhimurium; details: agent alone
How it was run: as §1

P. aeruginosa = assay: microbe, parasite or virus in culture; assay type: cell-based, Pseudomonas aeruginosa
How it was run: as §1

MRSA 3114 = assay type: cell-based, Staphylococcus aureus; details: 3114
How it was run: as §1

MRSA 3126 = assay type: cell-based, Staphylococcus aureus; details: 3126
How it was run: as §1

S. typhimurium = assay: microbe, parasite or virus in culture; assay type: cell-based, Salmonella typhimurium
How it was run: as §1

MDREC 1238 = assay type: cell-based, Escherichia coli
How it was run: as §1

A. baumannii = assay: microbe, parasite or virus in culture; assay type: cell-based, Acinetobacter baumannii; details: for Antibacterial activity relative to PapMA-1: A. baumannii and S. typhimurium
How it was run: as §1

MDRAB 12035 [1] = assay: microbe, parasite or virus in culture; assay type: cell-based, Acinetobacter baumannii
How it was run: as §1

MDRPA 2003 = assay type: cell-based, Pseudomonas aeruginosa
How it was run: as §1

MDRPA 2002 = assay type: cell-based, Pseudomonas aeruginosa
How it was run: as §1

MDRAB 12035 [2] = assay: MIC of antibiotic during combined treatment with antimicrobial peptide; assay type: cell-based, Acinetobacter baumannii
How it was run: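 Strains in MH medium at 2×10^6 CFU/ml were mixed with peptide diluted stepwise (2:1) from its MIC, then antibiotic dilutions in MH medium were added to give the antibiotic MIC. The reversed set-up, peptide titrated against fixed antibiotic, gave the peptide MIC.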

[3] = system: multi-drug resistant bacteria; assay: MIC, summary statements for multi-drug resistant bacteria; assay type: cell-based
How it was run: as §1

[4] = peptide treatment concentration 1 μg/ml
[5] = peptide treatment concentration 2 μg/ml
[6] = peptide treatment concentration 4 μg/ml
[7] = peptide treatment concentration 6 μg/ml
[8] = peptide treatment concentration 8 μg/ml
[9] = peptide treatment concentration 16 μg/ml
[10] = peptide treatment concentration 32 μg/ml
[11] = peptide treatment concentration 64 μg/ml

Compound | Minimal inhibitory concentration MIC (S. epidermidis) [µg/mL] | Minimal inhibitory concentration MIC (MDRST 8009) [µg/mL] | Minimal inhibitory concentration MIC (P. aeruginosa) [µg/mL] | Minimal inhibitory concentration MIC (MRSA 3114) [µg/mL] | Minimal inhibitory concentration MIC (MRSA 3126) [µg/mL] | Minimal inhibitory concentration MIC (S. typhimurium) [µg/mL] | Minimal inhibitory concentration MIC (MDREC 1238) [µg/mL] | Minimal inhibitory concentration MIC (A. baumannii) [µg/mL] | Peptide MIC, peptide alone (A. baumannii) [µg/mL] | Antibacterial activity relative to PapMA-1 (A. baumannii) | Minimal inhibitory concentration MIC (MDRAB 12035 [1]) [µg/mL] | Peptide MIC, peptide alone (MDRAB 12035 [1]) [µg/mL] | Minimal inhibitory concentration MIC (MDRPA 2003) [µg/mL] | Minimal inhibitory concentration MIC (MDRPA 2002) [µg/mL] | Erythromycin MIC during combined treatment with peptide (MDRAB 12035 [2]; [4]) [µg/mL] | Linezolid MIC during combined treatment with peptide (MDRAB 12035 [2]; [4]) [µg/mL] | Vancomycin MIC during combined treatment with peptide (MDRAB 12035 [2]; [4]) [µg/mL] | Erythromycin MIC during combined treatment with peptide (MDRAB 12035 [2]; [5]) [µg/mL] | Linezolid MIC during combined treatment with peptide (MDRAB 12035 [2]; [5]) [µg/mL] | Vancomycin MIC during combined treatment with peptide (MDRAB 12035 [2]; [5]) [µg/mL] | other results
CC[C@H](C)[C@H](NC(=O)[C@H](CCCCN)NC(=O)[C@H](Cc1c[nH]c2ccccc12)NC(=O)[C@@H](N)CCCNC(=N)N)C(=O)N[C@@H](Cc1ccccc1)C(=O)N[C@@H](CCCCN)C(=O)N[C@@H](CCCCN)C(=O)N[C@H](C(=O)N[C@H](CCCCN)C(=O)N[C@@H](CCCCN)C(=O)N[C@@H](CC(C)C)C(=O)N[C@@H](CC(C)C)C(=O)N[C@@H](Cc1c[nH]cn1)C(=O)N[C@@H](CCC(=O)O)C(=O)N[C@@H](C)C(=O)N[C@@H](CCCCN)C(=O)N[C@@H](CCCCN)C(=O)N[C@@H](Cc1c[nH]c2ccccc12)C(N)=O)[C@@H](C)CC [PapMA-20, RWK IFK KIk KLL HEA KKW-NH2] (H-RWKIFKKI[dK]KLLHEAKKW-NH2; N-terminus assumed) | >128 | 64 (≈ 26.9 µM) | 64 (≈ 26.9 µM) | >128 | >128 | 32 (≈ 13.4 µM) | 32 (≈ 13.4 µM) | 16 (≈ 6.72 µM) | 16 | at least twice as high | 16 (≈ 6.72 µM) | 16 | 64 (≈ 26.9 µM) | 64 (≈ 26.9 µM) | 32 | >128 | >128 | 16 | 128 | >128 | Erythromycin MIC during combined treatment with peptide (MDRAB 12035 [2]; [6]): 8 µg/mL; Linezolid MIC during combined treatment with peptide (MDRAB 12035 [2]; [6]): 32 µg/mL; Vancomycin MIC during combined treatment with peptide (MDRAB 12035 [2]; [6]): 64 µg/mL; Erythromycin MIC during combined treatment with peptide (MDRAB 12035 [2]; [7]): 4 µg/mL; Linezolid MIC during combined treatment with peptide (MDRAB 12035 [2]; [7]): 16 µg/mL; Vancomycin MIC during combined treatment with peptide (MDRAB 12035 [2]; [7]): 16 µg/mL; Erythromycin MIC during combined treatment with peptide (MDRAB 12035 [2]; [8]): 0.5 µg/mL; Linezolid MIC during combined treatment with peptide (MDRAB 12035 [2]; [8]): 4 µg/mL; Vancomycin MIC during combined treatment with peptide (MDRAB 12035 [2]; [8]): 4 µg/mL; Erythromycin MIC during combined treatment with peptide (MDRAB 12035 [2]; [9]): 0 µg/mL; Linezolid MIC during combined treatment with peptide (MDRAB 12035 [2]; [9]): 0 µg/mL; Vancomycin MIC during combined treatment with peptide (MDRAB 12035 [2]; [9]): 0 µg/mL; Erythromycin MIC during combined treatment with peptide (MDRAB 12035 [2]; [10]): 0 µg/mL; Linezolid MIC during combined treatment with peptide (MDRAB 12035 [2]; [10]): 0 µg/mL; Vancomycin MIC during combined treatment with peptide (MDRAB 12035 [2]; [10]): 0 µg/mL; Erythromycin MIC during combined treatment with peptide (MDRAB 12035 [2]; [11]): 0 µg/mL; Linezolid MIC during combined treatment with peptide (MDRAB 12035 [2]; [11]): 0 µg/mL; Vancomycin MIC during combined treatment with peptide (MDRAB 12035 [2]; [11]): 0 µg/mL; Antibacterial activity relative to PapMA-1 [3]: twice to four times higher
CC[C@H](C)[C@H](NC(=O)[C@H](CCCCN)NC(=O)[C@H](Cc1c[nH]c2ccccc12)NC(=O)[C@@H](N)CCCNC(=N)N)C(=O)N[C@@H](Cc1ccccc1)C(=O)N[C@@H](CCCCN)C(=O)N[C@@H](CCCCN)C(=O)N[C@H](C(=O)N[C@H](CC(C)C)C(=O)N[C@@H](CCCCN)C(=O)N[C@@H](CC(C)C)C(=O)N[C@@H](CC(C)C)C(=O)N[C@@H](Cc1c[nH]cn1)C(=O)N[C@@H](CCCCN)C(=O)N[C@@H](C)C(=O)N[C@@H](CCCCN)C(=O)N[C@@H](CCCCN)C(=O)N[C@@H](Cc1c[nH]c2ccccc12)C(N)=O)[C@@H](C)CC [PapMA-22, RWK IFK KIl KLL HKA KKW-NH2] (H-RWKIFKKI[dL]KLLHKAKKW-NH2; N-terminus assumed) | >128 | 32 (≈ 13.5 µM) | 16 (≈ 6.77 µM) | >128 | >128 | 32 (≈ 13.5 µM) | 32 (≈ 13.5 µM) | 16 (≈ 6.77 µM) | 16 | at least twice as high | 32 (≈ 13.5 µM) | 32 | 32 (≈ 13.5 µM) | 32 (≈ 13.5 µM) | 32 | >128 | >128 | 32 | >128 | >128 | Erythromycin MIC during combined treatment with peptide (MDRAB 12035 [2]; [6]): 16 µg/mL; Linezolid MIC during combined treatment with peptide (MDRAB 12035 [2]; [6]): 64 µg/mL; Vancomycin MIC during combined treatment with peptide (MDRAB 12035 [2]; [6]): 128 µg/mL; Erythromycin MIC during combined treatment with peptide (MDRAB 12035 [2]; [7]): 2 µg/mL; Linezolid MIC during combined treatment with peptide (MDRAB 12035 [2]; [7]): 16 µg/mL; Vancomycin MIC during combined treatment with peptide (MDRAB 12035 [2]; [7]): 32 µg/mL; Erythromycin MIC during combined treatment with peptide (MDRAB 12035 [2]; [8]): 1 µg/mL; Linezolid MIC during combined treatment with peptide (MDRAB 12035 [2]; [8]): 16 µg/mL; Vancomycin MIC during combined treatment with peptide (MDRAB 12035 [2]; [8]): 16 µg/mL; Erythromycin MIC during combined treatment with peptide (MDRAB 12035 [2]; [9]): 0.25 µg/mL; Linezolid MIC during combined treatment with peptide (MDRAB 12035 [2]; [9]): 8 µg/mL; Vancomycin MIC during combined treatment with peptide (MDRAB 12035 [2]; [9]): 8 µg/mL; Erythromycin MIC during combined treatment with peptide (MDRAB 12035 [2]; [10]): 0 µg/mL; Linezolid MIC during combined treatment with peptide (MDRAB 12035 [2]; [10]): 0 µg/mL; Vancomycin MIC during combined treatment with peptide (MDRAB 12035 [2]; [10]): 0 µg/mL; Erythromycin MIC during combined treatment with peptide (MDRAB 12035 [2]; [11]): 0 µg/mL; Linezolid MIC during combined treatment with peptide (MDRAB 12035 [2]; [11]): 0 µg/mL; Vancomycin MIC during combined treatment with peptide (MDRAB 12035 [2]; [11]): 0 µg/mL; Antibacterial activity relative to PapMA-1 [3]: twice to four times higher
